Laboratory results published in US8853219B2, “Compounds and compositions for cognition-enhancement, methods of making, and methods of treating” (NeuroSolis, Inc., priority 2010, dated 2014).
Read-outs that look alike come from different tables or passages of the source. Each block holds one compound with its values, some of them ahead of it.

How the values were obtained:
[1] = molecular target: T1, human muscarinic M3 receptors (Homo sapiens, UniProt P20309); experiment: Stimulation of inositol phosphate production in A9L cells, human M3 (IPOne TR-FRET); format: cell-based
T1 construct: host or cells: A9L cells
Procedure: (§1) Muscarinic M1 and M3 agonist activity was evaluated by measuring the stimulation of inositol phosphate (IP) production in the presence of lithium chloride from A9L cells transfected with expression plasmids containing human muscarinic M1 and M3 receptors, respectively. The cell lines were a gift from Professor W Messer, and the methods were as described in Tejada F R et al. J. Med. Chem. 2006; 49: 7518-31 except that the assay was scaled down to run in 384 well plates, and IP was measured in the cell lysates using the non-isotopic IPOne TR-FRET assay (CIS-BIO, Inc).
(§2) Cells were grown to 90% confluence in 384 well hi-base plates (Greiner Bio-One), compounds were added at suitable concentrations in growth medium containing 10 mM LiCL, buffered with an extra 10 mM HEPES (pH7.4), and incubated for 60 minutes at 37° C. Cells were lysed and assayed for IP following the manufacturer's instructions.
(§3) The value for a full agonist is 100%, while partial agonists give values below 100%.

[2] = PAMPA test
[3] = molecular target: T2, human muscarinic M1 receptors (Homo sapiens, UniProt P11229); experiment: Stimulation of inositol phosphate production in A9L cells, human M1 (IPOne TR-FRET); format: cell-based
T2 construct: host or cells: A9L cells
T2 sequence (P11229 1-460): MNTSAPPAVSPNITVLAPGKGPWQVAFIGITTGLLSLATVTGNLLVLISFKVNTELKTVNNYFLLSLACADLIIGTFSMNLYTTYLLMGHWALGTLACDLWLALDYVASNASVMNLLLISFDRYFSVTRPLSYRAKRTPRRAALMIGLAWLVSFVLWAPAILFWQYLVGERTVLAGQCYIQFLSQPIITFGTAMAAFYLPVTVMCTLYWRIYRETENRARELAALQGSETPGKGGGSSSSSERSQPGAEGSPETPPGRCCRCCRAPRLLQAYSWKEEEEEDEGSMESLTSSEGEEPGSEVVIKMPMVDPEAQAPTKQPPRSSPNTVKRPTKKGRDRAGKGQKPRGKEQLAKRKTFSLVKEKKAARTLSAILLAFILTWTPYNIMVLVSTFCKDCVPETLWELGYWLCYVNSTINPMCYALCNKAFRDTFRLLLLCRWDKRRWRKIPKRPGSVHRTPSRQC
Procedure: as §1, §2, §3

[4] = Immediate release capsules in healthy male volunteers: serum pharmacokinetics, metabolites, cholinergic side effects; format: in vivo, human
Procedure: A single 5 mg capsule or 5×0.2 mg capsules (1 mg total dose) were administered orally to healthy male volunteer human subjects with 125 ml of water. Six such subjects receiving the 5 mg dose, and a different 6 subjects received the 1 mg dose.
Subjects were monitored, among other things, for typical signs of muscarinic cholinergic action, such as increased salivation, lachrimation and diaphoresis. Venous blood samples were drawn at various intervals after dosing from each subject into standard tubes for bioanalytical and pharmacokinetic analysis. The blood was allowed to clot, and the serum separated, using common clinical laboratory techniques. Serum samples were stored at −20 deg C. until used for analysis.
MCD-386HCl, which exists in serum principally as the protonated form of MCD-386, was assayed in clinical serum samples as follows. 200 μL aliquots of serum samples were spiked with 50.0 μL of diluent for subject samples and QC samples and 50 μL of the appropriate intermediate standard solution for standards. Twenty five microliters (25.0 μL) of working internal standard stock solution and 40.0 μL of 10 N sodium hydroxide was then added and the samples were vortex mixed. Three milliliters (3.00 mL) of ethyl acetate was added followed by 5 minutes of vigorous vortexing and centrifugation. The top organic layer was transferred to a clean tube, evaporated to dryness, and the sample was reconstituted with 100 μL of diluent (0.1% formic acid). A 10 μL aliquot of this reconstituted sample was injected into Phenomenex Synergy 4μ POLAR-RP, 75×2.0 mm (P/N 00C-4336-B0) on a Waters Acuity HPLC LC system, and eluted using a gradient of from 12% to 90% acetonitrile containing 0.1% formic acid/0.1% formic acid in water. The eluant flow of the LC was injected by Turbo Ion Spray (positive ion) into a Sciex API 4000 (Applied Biosystems). The MS/MS transitions monitored were 181.1 m/z to 111.0 m/z for MCD-386HCl and 186.1 m/z to 111.1 m/z for the internal standard, D5-MCD-386HCl. The calibration curve was linear between 0.100 ng/mL and 50.0 ng/mL for MCD-386HCl. The lower limit of quantitation (LLOQ) was 0.100 ng MCD-386HCl per mL of serum. MCD-386HCl concentrations are expressed as free base.
The bioanalytical method for the extraction of metabolites from serum samples entailed adding 450 uL of a 90% acetonitrile+0.1% formic acid solution to 50 uL of the serum samples. The samples were vortexed and centrifuged at 16,000x g at 4° C. for 10 minutes. The supernatants were transferred to 3K molecular weight cut-off (MWCO) spin filters (Pall, Nanosep, #82031-346). Samples were filtered by centrifugation at 13,000×g at 4° C. for 20 minutes. The filtrates were transferred to a 96-well plate and sealed for LC/MS/MS analysis. The system used for this analysis was a Shimadzu Prominence HPLC system. […] The autosampler was maintained at 4° C. Injection volumes for all samples and standards were 40 uL. MRM methods for two possible metabolites were made. An API 3200 triple-quadrupole mass spectrometer with a Turbo V source (Applied Biosystems) was used, following commonly used procedures which would be readily set up by a person skilled in the art of LC-MS/MS. The counts of the characteristic parent and product ions of the free base metabolites were converted to concentration units by comparison with a standard calibration curve.
The bioanalytical results were analyzed using Win Nonlin software and common pharmacokinetic methods known to those skilled in the art.

[5] = test system: Long Evans Hooded rats; experiment: In vivo measurement of salivation; set-up: species or system rat; details: Compound 3 0.3 mg/kg
Procedure: Suitable doses of test compounds or drug substances were administered using standard techniques to Long Evans Hooded rats weighing 225 to 350 grams, or CD-1 mice weighing 30 to 50 grams, which had been anesthetized using 2-3.5%% of isoflurane in oxygen. The animals were placed slightly head-down on an inclined, heated ramp. Rectal temperature was monitored using a thermocouple and the temperature of the heating pad was adjusted manually to maintain normal body temperature. Saliva was collected from the mouth by absorption onto pre-weighed slips of filter paper. The filter paper was changed periodically and the amount of saliva was measured by weighing the filter paper slips.

[6] = test system: inositol phosphate signaling pathway; experiment: In vivo measurement of tissue inositol phosphate signaling pathway activation (hippocampus, salivary gland); details: rat, Compound 3 1 mg/kg
Procedure: Experimental compounds or drug substances were administered using standard techniques to Long Evans Hooded rats weighing 225 to 350 grams, and which had been pretreated with a subcutaneous injection of lithium chloride at a suitable dose between 3 and 10 mmoles per kg. At suitable times the animals were briefly anesthetized using 5% isoflurane and euthanized by decapitation. The brains and submaxillary salivary glands were rapidly dissected out, and the hippocampuses were dissected from the brains. The dissected tissues were homogenized in a suitable volume of ice-cold phosphate-buffered saline containing 10 mM lithium chloride, pH7.4, using a tissue homogenizer, and used immediately or frozen in aliquots at −80 degC for future use. The concentration of inositol-1-phosphate was determined in the homogenates using the IPOne TR-FRET assay (CisBio cat no 621PAPEB), following the manufacturer's instruction

[7] = test system: rats; experiment: Salivation after transdermal iontophoretic co-delivery of agonist and antagonist from one patch; format: in vivo, rat; details: anesthetized rats, device with 1 mg Compound 3 plus 0.01 mg antagonist
Procedure: Experimental compounds and drug substances were delivered transdermally in rats using iontophoresis as follows. The fur was shaved from the backs of Long Evans Hooded rats weighing 225 to 325 grams, using electric clippers. Experimental compounds and drug substances were formulated at suitable concentrations an aqueous mixture of the following composition:
The polyvinyl alcohol/water was heated to 95 degC until it became clear, then the other constituents were added and mixed well. The mixture was introduced into suitable molds containing a disc-shaped cavity 2.2 cm diameter and 2.2 mm deep. Molds may be fabricated using two glass sheets separated by a silicone rubber sheet with suitable sized cavities and filling ports cut-outs. The molds were subject to 3 freeze-thaw cycles at −80 degC and 20 degC until a firm cryogel was obtained. The gels were separated from the molds and trimmed into a circular shape. The gel was placed in a silicone rubber casing with one face in contact with a circular silver foil anodic electrode (22 mm dia/250 microns thick), and the assembly was placed on the shaved skin of the rat such that the other face was in contact with the skin on one side of the back of the rat. The rubber casing formed a seal over and around the gel/electrode assembly. […] This was placed on the other side of the shaved back of the rat, the edges of the gel discs being about 20 mm apart at their nearest point. A DC voltage was applied across the two patches from a constant-current DC power supply and the voltage adjusted to obtain the desired current, such that the skin of the animal completed the electrical circuit.
The devices were placed on shaved backs of anesthetized rats and salivation was measured.
The animals were placed slightly head-down on an inclined, heated ramp. Rectal temperature was monitored using a thermocouple and the temperature of the heating pad was adjusted manually to maintain normal body temperature. Saliva was collected from the mouth by absorption onto pre-weighed slips of filter paper. The filter paper was changed periodically and the amount of saliva was measured by weighing the filter paper slips.

[8] = potency class relative to carbachol

T1 sequence (P20309 whole entry): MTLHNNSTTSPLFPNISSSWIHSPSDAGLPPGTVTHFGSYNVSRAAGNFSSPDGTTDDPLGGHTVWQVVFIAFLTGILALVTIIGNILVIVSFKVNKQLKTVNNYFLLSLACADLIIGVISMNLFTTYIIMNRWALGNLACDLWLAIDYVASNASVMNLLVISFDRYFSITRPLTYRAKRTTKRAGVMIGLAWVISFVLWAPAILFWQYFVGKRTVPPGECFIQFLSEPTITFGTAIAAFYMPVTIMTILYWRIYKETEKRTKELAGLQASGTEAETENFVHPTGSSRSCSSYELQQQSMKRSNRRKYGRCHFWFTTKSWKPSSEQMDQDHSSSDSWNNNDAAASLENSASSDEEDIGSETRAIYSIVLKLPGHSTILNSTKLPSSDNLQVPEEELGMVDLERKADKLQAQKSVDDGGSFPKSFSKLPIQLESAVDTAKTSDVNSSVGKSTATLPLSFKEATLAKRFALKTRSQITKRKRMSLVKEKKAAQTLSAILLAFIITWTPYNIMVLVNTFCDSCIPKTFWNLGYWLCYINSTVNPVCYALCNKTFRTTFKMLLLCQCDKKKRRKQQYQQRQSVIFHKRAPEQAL

PAMPA units: 7.95
SMILES: Clc1cccc(Cl)c1N=C1NCCN1 [Clonidine]

huM3/A9L ED50 relative to CCh [1, 8]: −− (potency < 0.1x CCh)
PAMPA units [2]: 16.3
huM1/A9L ED50 relative to CCh [3, 8]: − (potency < 0.5-0.1x CCh)
SMILES: Cc1noc(C2(F)CCCNC2)n1 (stereo not shown) [Compound 35, 5-(3-fluoropiperidin-3-yl)-3-methyl-1,2,4-oxadiazole]

SMILES: Cc1noc(C2CN3CCC2CC3)n1 (stereo not shown) [Compound 37, 3-methyl-5-(quinuclidin-3-yl)-1,2,4-oxadiazole, reference compound]
huM3/A9L ED50 relative to CCh [1]: ++ (key: ++: potency > 10x CCh; +: potency 2-10x CCh; +/−: potency 0.5-2x CCh; −: potency < 0.5-0.1x CCh; −−: potency < 0.1x CCh; inactive: potency too low to determine)
PAMPA units [2]: 3.02
huM1/A9L ED50 relative to CCh [3]: ++ (key: ++: potency > 10x CCh; +: potency 2-10x CCh; +/−: potency 0.5-2x CCh; −: potency < 0.5-0.1x CCh; −−: potency < 0.1x CCh; inactive: potency too low to determine)
Potency and efficacy at M1 muscarinic receptors ([3]; Table 12): highly potent
Selectivity for M1 versus M3 receptors ([3]; huM1/A9L versus huM3/A9L): essentially non-selective between M1 and M3 receptors

SMILES: CCc1noc(C2CN=CNC2)n1 (stereo not shown) [MCD-386HCl, 5-(3-ethyl-1,2,4-oxadiazol-5-yl)-1,4,5,6-tetrahydropyrimidine]
Observable cholinergic side effects ([4]; 1 mg total dose cohort): none of the subjects in the 1 mg total dose cohort experienced any observable cholinergic side effects
Diaphoresis ([4]; 5 mg cohort): Two of these latter subjects experienced mild, transient diaphoresis that resolved within a short period, and two subjects experienced moderate diaphoresis
Hypersalivation ([4]; 5 mg cohort): One of the latter subjects also experienced mild hypersalivation
Observable cholinergic side effects ([4]; 5 mg cohort): two subjects experienced no observable side effects, and four subjects showed signs of muscarinic cholinergic activity
Main metabolite in serum ([4]; 5 mg dose cohort): identified in the serum samples of five out of six subjects

SMILES: C[N+]1(C)[C@@H]2C[C@@H](OC(=O)[C@H](CO)c3ccccc3)C[C@H]1[C@@H]1O[C@@H]12 [NMS, N-methylscopolamine]
Decrease in salivation caused by Compound 3 [5]: dose-dependent decrease in salivation
Block of increase in salivary gland inositol phosphate caused by Compound 3 ([6]; antagonist 0.003 mg/kg): some breakthrough activation
Block of increase in salivary gland inositol phosphate caused by Compound 3 ([6]; antagonist 0.03 mg/kg to 0.01 mg/kg): nearly as effective as 0.1 mg/kg
Block of increase in salivary gland inositol phosphate caused by Compound 3 ([6]; antagonist 0.1 mg/kg): completely block
Inhibition of increase in hippocampal inositol phosphate caused by Compound 3 ([6]; antagonist 0.1 mg/kg): does not inhibit
Reduction of salivation caused by transdermal iontophoretic delivery of Compound 3 [7]: greatly reduced

PAMPA units: 0.26
SMILES: CNC(=C[N+](=O)[O-])NCCSCc1ccc(CN(C)C)o1 [Ranitidine]

SMILES: NC(=O)C(c1ccccc1)(c1ccccc1)[C@@H]1CCN(CCc2ccc3c(c2)CCO3)C1 [darifenacin]
Block of increase in salivary gland inositol phosphate caused by Compound 3 ([6]; antagonist 0.1 mg/kg): less effective
Reduction of salivation caused by transdermal iontophoretic delivery of Compound 3 [7]: reduced salivation, but were less effective

SMILES: C[N+]1(C)CCC(OC(=O)C(O)(c2ccccc2)C2CCCC2)C1 (stereo not shown) [glycopyrrolate]
Block of increase in hippocampal inositol phosphate caused by Compound 3 ([6]; antagonist 0.03 mg/kg): without blocking
Block of increase in salivary gland inositol phosphate caused by Compound 3 ([6]; antagonist 0.03 mg/kg): can block
Reduction of salivation caused by transdermal iontophoretic delivery of Compound 3 [7]: greatly reduced

SMILES: CCN(CC)CC#CCOC(=O)C(O)(c1ccccc1)C1CCCCC1 (stereo not shown) [oxybutinin]
Block of increase in salivary gland inositol phosphate caused by Compound 3 ([6]; antagonist 0.1 mg/kg): less effective
Reduction of salivation caused by transdermal iontophoretic delivery of Compound 3 [7]: reduced salivation, but were less effective

SMILES: CC(C)[N+](C)(CCOC(=O)C1c2ccccc2Oc2ccccc21)C(C)C [propantheline]
Block of increase in hippocampal inositol phosphate caused by Compound 3 ([6]; antagonist 0.03 mg/kg): without blocking
Block of increase in salivary gland inositol phosphate caused by Compound 3 ([6]; antagonist 0.03 mg/kg): can block
Reduction of salivation caused by transdermal iontophoretic delivery of Compound 3 [7]: greatly reduced
